The supplement of paper PMC10132981, “Formate overflow drives toxic folate trapping in MTHFD1 inhibited cancer cells” (Nature Metabolism, 2023)

Tests used:
Experiment in all cases: EC50 for viability (resazurin, 96 h)
SW620 MTHFD2-/- = settings: RPMI+GlutaMAX (5% dFBS, 1% P/S)
SW620 MTHFD2 -/- = settings: RPMI+GlutaMAX (5% dFBS, 1% P/S)
SW620 = tested on: SW620
SW620 WT = tested on: SW620 WT
HCT116 = settings: RPMI+GlutaMAX (10% FBS, 1% P/S)
PA-TU-8988T = settings: DMEM+GlutaMAX (5% dFBS, 1% P/S)

Nc1nc(N)c(NC(=O)Nc2cnc(C(=O)N[C@@H](CCc3nnn[nH]3)C(=O)O)c(F)c2)c(=O)[nH]1
Settings | EC50 for viability [nM]
HCT116, metabolite supplement: Hypoxanthine | 6.57
HCT116, metabolite supplement: Vehicle | 13.1
PA-TU-8988T, metabolite supplement: Thymidine | 1.6
PA-TU-8988T, metabolite supplement: Vehicle | 1.31
SW620 MTHFD2 -/-, metabolite supplement: Hypoxanthine | 1.53
SW620 MTHFD2 -/-, metabolite supplement: Sodium Formate | 12.5
SW620 MTHFD2 -/-, metabolite supplement: Thymidine | 0.604
SW620 MTHFD2 -/-, metabolite supplement: Thymidine + Sodium Formate | 129
SW620 MTHFD2 -/-, metabolite supplement: Vehicle | 0.506
SW620 MTHFD2-/-, metabolite supplement: Hypoxanthine + Formate | 15.8
SW620 MTHFD2-/-, metabolite supplement: Vehicle | 0.501

Settings | EC50 for viability [nM]
SW620 WT, RPMI+GlutaMAX (5% dFBS, 1% P/S), metabolite supplement: Adenine | 15.3
SW620 WT, RPMI+GlutaMAX (5% dFBS, 1% P/S), metabolite supplement: Adenosine | 16.6
SW620 WT, RPMI+GlutaMAX (5% dFBS, 1% P/S), metabolite supplement: Guanosine | 19.9
SW620 WT, RPMI+GlutaMAX (5% dFBS, 1% P/S), metabolite supplement: Hypoxanthine | 14.1
SW620 WT, RPMI+GlutaMAX (5% dFBS, 1% P/S), metabolite supplement: Hypoxanthine + AICAr 10 µM | 12.3
SW620 WT, RPMI+GlutaMAX (5% dFBS, 1% P/S), metabolite supplement: Hypoxanthine + AICAr 30 µM | 16.4
SW620 WT, RPMI+GlutaMAX (5% dFBS, 1% P/S), metabolite supplement: Hypoxanthine + AICAr 50 µM | 20
SW620 WT, RPMI+GlutaMAX (5% dFBS, 1% P/S), metabolite supplement: Hypoxanthine + AICAr 100 µM | > 10000
SW620 WT, RPMI+GlutaMAX (5% dFBS, 1% P/S, 10 uM Hypoxanthine), metabolite supplement: Thymidine 0.1 uM | 16.5
SW620 WT, RPMI+GlutaMAX (5% dFBS, 1% P/S, 10 uM Hypoxanthine), metabolite supplement: Thymidine 0.5 uM | 24.3
SW620 WT, RPMI+GlutaMAX (5% dFBS, 1% P/S, 10 uM Hypoxanthine), metabolite supplement: Thymidine 1uM | 13.7
SW620 WT, RPMI+GlutaMAX (5% dFBS, 1% P/S, 10 uM Hypoxanthine), metabolite supplement: Thymidine 5uM | > 10000
SW620 WT, RPMI+GlutaMAX (5% dFBS, 1% P/S, 10 uM Hypoxanthine), metabolite supplement: Thymidine 10 uM | > 10000
SW620 WT, RPMI+GlutaMAX (5% dFBS, 1% P/S, 10 uM Hypoxanthine), metabolite supplement: Thymidine 25 uM | > 10000
SW620 WT, RPMI+GlutaMAX (5% dFBS, 1% P/S, 10 uM Hypoxanthine), metabolite supplement: Thymidine 50 uM | > 10000
SW620 WT, RPMI+GlutaMAX (5% dFBS, 1% P/S, 10 uM Hypoxanthine), metabolite supplement: Vehicle | 13.6
SW620 WT, RPMI+GlutaMAX (5% dFBS, 1% P/S, 50 uM Hypoxanthine), metabolite supplement: Thymidine 0.1 uM | 17.5
SW620 WT, RPMI+GlutaMAX (5% dFBS, 1% P/S, 50 uM Hypoxanthine), metabolite supplement: Thymidine 0.5 uM | 14.5
SW620 WT, RPMI+GlutaMAX (5% dFBS, 1% P/S, 50 uM Hypoxanthine), metabolite supplement: Thymidine 1uM | 12.5
SW620 WT, RPMI+GlutaMAX (5% dFBS, 1% P/S, 50 uM Hypoxanthine), metabolite supplement: Thymidine 5uM | > 10000
SW620 WT, RPMI+GlutaMAX (5% dFBS, 1% P/S, 50 uM Hypoxanthine), metabolite supplement: Thymidine 10 uM | > 10000
SW620 WT, RPMI+GlutaMAX (5% dFBS, 1% P/S, 50 uM Hypoxanthine), metabolite supplement: Thymidine 25 uM | > 10000
SW620 WT, RPMI+GlutaMAX (5% dFBS, 1% P/S, 50 uM Hypoxanthine), metabolite supplement: Thymidine 50 uM | > 10000
SW620 WT, RPMI+GlutaMAX (5% dFBS, 1% P/S, 50 uM Hypoxanthine), metabolite supplement: Vehicle | 13
SW620, HPLM (5% dFBS, 1% P/S), metabolite supplement: Vehicle | 12.7
SW620, RPMI+GlutaMAX (5% FBS, 1% P/S), metabolite supplement: Vehicle | 13.4
SW620, RPMI+GlutaMAX (5% dFBS, 1% P/S), metabolite supplement: 50 µM Hypoxanthine | 14
SW620, RPMI+GlutaMAX (5% dFBS, 1% P/S), metabolite supplement: Vehicle | 14.7
SW620, RPMI+GlutaMAX (10% FBS, 1% P/S), metabolite supplement: Folic acid | 597
SW620, RPMI+GlutaMAX (10% FBS, 1% P/S), metabolite supplement: Folinic acid | 687
SW620, RPMI+GlutaMAX (10% FBS, 1% P/S), metabolite supplement: Hypoxanthine | 10.4
SW620, RPMI+GlutaMAX (10% FBS, 1% P/S), metabolite supplement: Sodium Formate | 12.7
SW620, RPMI+GlutaMAX (10% FBS, 1% P/S), metabolite supplement: Thymidine | > 10000
SW620, RPMI+GlutaMAX (10% FBS, 1% P/S), metabolite supplement: Thymidine + Folic acid | 1920
SW620, RPMI+GlutaMAX (10% FBS, 1% P/S), metabolite supplement: Vehicle | 9.47
